Patent publication US20100197679A1, “COMPOUNDS” (Glaxo Group Limited, priority 2007, published 2010)
Where a name gives a salt, the structure may show the parent alone. Read-outs that look alike come from different tables or passages of the source.

Assays:
[1] = system: Mycobacterium tuberculosis H37Rv; assay: Mycobacterium tuberculosis H37Rv Inhibition Assay (MIC, resazurin fluorescence); assay type: cell-based; details: ATCC 25618 / H37Rv
[2] = Whole-cell antimicrobial activity assay, broth microdilution (CLSI M7-A7), MIC; assay type: cell-based; details: two-fold dilutions 0.016 to 16 mcg/mL, at least one of the listed Gram-positive/Gram-negative organisms, at least one exemplified salt or free base form, read-out: MIC against at least one of the organisms listed
Procedure: Whole-cell antimicrobial activity was determined by broth microdilution using the Clinical Laboratory Standards Institute (CLSI) recommended procedure, Document M7-A7, “Methods for Dilution Susceptibility Tests for Bacteria that Grow Aerobically”. The compounds were tested in serial two-fold dilutions ranging from 0.016 to 16 mcg/mL.
The minimum inhibitory concentration (MIC) was determined as the lowest concentration of compound that inhibited visible growth. A mirror reader was used to assist in determining the MIC endpoint.
Compounds were evaluated against Gram-positive organisms, including Staphylococcus aureus, Streptococcus pneumoniae, Streptococcus pyogenes, Enterococcus faecalis and Enterococcus faecium.
In addition, compounds were evaluated against Gram-negative organisms including Haemophilus influenzae, Moraxella catarrhalis, Escherichia coli, Pseudomonas aeruginosa, Proteus mirabilis, Enterobacter cloacae, Enterobacter aerogenes, Klebsiella pneumoniae, Acinetobacter baumanii and Stenotrophomonas maltophilia.

[3] = H37Rv strain (ATCC25618), Middlebrook 7H9+ADC, six days at 37° C., resazurin read after 48 hours, read-out: MIC value

SMILES | MIC [1, 3] [µg/mL] | further results
COc1ccc2ncc(=O)n(-c3cnc4c(c3)CCC(NCc3cc5c(cn3)OCCO5)C4)c2n1 (stereo not drawn) [Example 8, 4-{7-[(2,3-Dihydro[1,4]dioxino[2,3-c]pyridin-7-ylmethyl)amino]-5,6,7,8-tetrahydro-3-quinolinyl}-6-(methyloxy)pyrido[2,3-b]pyrazin-3(4H)-one hydrochloride] | ≤ 1.1 | –
COc1ccc2ncc(=O)n(-c3cnc4c(c3)C[C@@H](O)[C@@H](NCc3cc5c(nn3)OCCO5)C4)c2n1 (relative stereo) [Example 13, Cis-4-{7-[(6,7-Dihydro[1,4]dioxino[2,3-c]pyridazin-3-ylmethyl)amino]-6-hydroxy-5,6,7,8-tetrahydro-3-quinolinyl}-6-(methyloxy)pyrido[2,3-b]pyrazin-3(4H)-one dihydrochloride] | ≤ 1.1 | –
COc1ccc2ncc(=O)n(-c3cnc4c(c3)C[C@@H](O)[C@H](NCc3cc5c(cn3)OCCO5)C4)c2n1 (racemic) [Example 18, 4-{(6R/S,7R/S)-7-[(2,3-Dihydro[1,4]dioxino[2,3-c]pyridin-7-ylmethyl)amino]-6-hydroxy-5,6,7,8-tetrahydro-3-quinolinyl}-6-(methyloxy)pyrido[2,3-b]pyrazin-3(4H)-one dihydrochloride] | – | MIC ([1]; read-out: MIC value, H37Rv strain (ATCC25618), Middlebrook 7H9+ADC, six days at 37° C., resazurin read after 48 hours): ≤ 1.1 µg/mL
COc1ccc2ncc(=O)n(-c3cnc4c(c3)OCC(NCc3cc5c(cn3)OCCO5)C4)c2n1 (stereo not drawn) [Example 17, 4-{3-[(2,3-Dihydro[1,4]dioxino[2,3-c]pyridin-7-ylmethyl)amino]-3,4-dihydro-2H-pyrano[3,2-b]pyridin-7-yl}-6-(methyloxy)pyrido[2,3-b]pyrazin-3(4H)-one fumarate] | – | MIC [2]: 16 µg/mL
COc1ccc2ncc(=O)n(-c3cnc4c(c3)CCC(NCc3cc5c(nn3)OCCO5)C4)c2n1 (stereo not drawn) [Example 7, 4-{7-[(6,7-Dihydro[1,4]dioxino[2,3-c]pyridazin-3-ylmethyl)amino]-5,6,7,8-tetrahydro-3-quinolinyl}-6-(methyloxy)pyrido[2,3-b]pyrazin-3(4H)-one hydrochloride] | ≤ 1.1 | –
COc1ccc2ncc(=O)n(-c3cnc4c(c3)C[C@@H](O)[C@@H](NCc3cc5c(cn3)OCCO5)C4)c2n1 (relative stereo) [Example 14, Cis-4-{7-[(2,3-Dihydro[1,4]dioxino[2,3-c]pyridin-7-ylmethyl)amino]-6-hydroxy-5,6,7,8-tetrahydro-3-quinolinyl}-6-(methyloxy)pyrido[2,3-b]pyrazin-3(4H)-one] | ≤ 1.1 | –
